Converted amounts (≈) assume the structure as drawn.
Legend:
[1] = Kinetic solubility in PBS pH 7.4, HPLC-UV (Example 21, Table 27); assay type: physicochemical; details: phosphate buffered saline, aqueous buffer, kinetic from dmso stock, 0.5 M PBS, shaken minimum 24 h at approximately 25° C., HPLC-UV 270 nm
Experimental: Compounds were analyzed for kinetic solubility values using a standard kinetic solubility assay format. First, test compounds were dissolved in DMSO (Aldrich Chemical Co., Milwaukee, Wis., USA) at a concentration of 0.010 mol/L and used to prepare standard calibrators in DMSO solution. 500.0 μM, 250.0 μM, 125.0 μM, 62.5 μM, 31.2 μM, and 15.6 μM standards were prepared in a Greiner UV-Star clear V-bottom 96-well plate (Greiner-Bio One, Germany) for generating a standard curve. Using Alfa Aesar's Sodium phosphate, 0.2 M buffer solution, pH 7.4 (Alfa Aesar, Haverhill, Mass., USA), aqueous phosphate buffered saline (PBS) was prepared by diluting with Milli-Q water for a final concentration of 0.05 M. The pH of the solution was adjusted to 7.4±0.1 using 0.1 M hydrochloric acid (Fisher Scientific Waltham, Mass., USA) or 0.1 M aqueous sodium hydroxide (Fisher Scientific Waltham, Mass., USA).
10 μL of 0.010 mol/L DMSO test compound stock solutions were pipetted to separate 1.5 mL centrifuge tubes in triplicate. To these tubes, 190 μl of 0.05 M PBS was added. Each tube was gently vortexed for 5 sec. The tubes were shaken for a minimum of 24 h at approximately 25° C. After shaking, the solutions were transferred to 0.5 mL centrifuge filter tubes (MilliporeSigma, Burlington, Mass., USA) and centrifuged at 10,000 rpm for 5 min. After centrifugation, supernatants were collected and used for compound concentration analysis.
Compound concentrations in each solution were determined using high pressure liquid chromatography (HPLC) with ultraviolet (UV) detection and comparison with external standards. For HPLC, a Waters Acquity CSH Phenyl-Hexyl column (2.1 mm×50 mm, 1.7 μm) was used together with a generic gradient method on a Waters H-class system equipped with a diode array detector: Solvent A=0.1% formic acid in water, Solvent B=0.1% formic acid in acetonitrile (MilliporeSigma, Burlington, Mass., USA), flow=0.65 mL/min, (t=0 min: 95% A-5% B, t=4.75 min: 0% A-100% B, t=4.85 min: 0% A-100% B, t=4.86 min: 95% A-5% B, t=5 min: 95% A-5% B). UV quantifications were performed at 270 nm. Solution concentrations were calculated using Microsoft Excel.

Human C5 = target: T1, Human C5 (Homo sapiens, UniProt P01031); experiment: Red blood cell (RBC) hemolysis assay, luminescent (Example 13, Table 22); assay type: cell-based; details: sheep EA cells, […] C5-depleted human serum, 0.5 nM human C5, 1 hour 37° C., luminescence; also: 1.5% C5-depleted human serum
T1 construct: purchased Complement Technology
T1 sequence (P01031 19-1676): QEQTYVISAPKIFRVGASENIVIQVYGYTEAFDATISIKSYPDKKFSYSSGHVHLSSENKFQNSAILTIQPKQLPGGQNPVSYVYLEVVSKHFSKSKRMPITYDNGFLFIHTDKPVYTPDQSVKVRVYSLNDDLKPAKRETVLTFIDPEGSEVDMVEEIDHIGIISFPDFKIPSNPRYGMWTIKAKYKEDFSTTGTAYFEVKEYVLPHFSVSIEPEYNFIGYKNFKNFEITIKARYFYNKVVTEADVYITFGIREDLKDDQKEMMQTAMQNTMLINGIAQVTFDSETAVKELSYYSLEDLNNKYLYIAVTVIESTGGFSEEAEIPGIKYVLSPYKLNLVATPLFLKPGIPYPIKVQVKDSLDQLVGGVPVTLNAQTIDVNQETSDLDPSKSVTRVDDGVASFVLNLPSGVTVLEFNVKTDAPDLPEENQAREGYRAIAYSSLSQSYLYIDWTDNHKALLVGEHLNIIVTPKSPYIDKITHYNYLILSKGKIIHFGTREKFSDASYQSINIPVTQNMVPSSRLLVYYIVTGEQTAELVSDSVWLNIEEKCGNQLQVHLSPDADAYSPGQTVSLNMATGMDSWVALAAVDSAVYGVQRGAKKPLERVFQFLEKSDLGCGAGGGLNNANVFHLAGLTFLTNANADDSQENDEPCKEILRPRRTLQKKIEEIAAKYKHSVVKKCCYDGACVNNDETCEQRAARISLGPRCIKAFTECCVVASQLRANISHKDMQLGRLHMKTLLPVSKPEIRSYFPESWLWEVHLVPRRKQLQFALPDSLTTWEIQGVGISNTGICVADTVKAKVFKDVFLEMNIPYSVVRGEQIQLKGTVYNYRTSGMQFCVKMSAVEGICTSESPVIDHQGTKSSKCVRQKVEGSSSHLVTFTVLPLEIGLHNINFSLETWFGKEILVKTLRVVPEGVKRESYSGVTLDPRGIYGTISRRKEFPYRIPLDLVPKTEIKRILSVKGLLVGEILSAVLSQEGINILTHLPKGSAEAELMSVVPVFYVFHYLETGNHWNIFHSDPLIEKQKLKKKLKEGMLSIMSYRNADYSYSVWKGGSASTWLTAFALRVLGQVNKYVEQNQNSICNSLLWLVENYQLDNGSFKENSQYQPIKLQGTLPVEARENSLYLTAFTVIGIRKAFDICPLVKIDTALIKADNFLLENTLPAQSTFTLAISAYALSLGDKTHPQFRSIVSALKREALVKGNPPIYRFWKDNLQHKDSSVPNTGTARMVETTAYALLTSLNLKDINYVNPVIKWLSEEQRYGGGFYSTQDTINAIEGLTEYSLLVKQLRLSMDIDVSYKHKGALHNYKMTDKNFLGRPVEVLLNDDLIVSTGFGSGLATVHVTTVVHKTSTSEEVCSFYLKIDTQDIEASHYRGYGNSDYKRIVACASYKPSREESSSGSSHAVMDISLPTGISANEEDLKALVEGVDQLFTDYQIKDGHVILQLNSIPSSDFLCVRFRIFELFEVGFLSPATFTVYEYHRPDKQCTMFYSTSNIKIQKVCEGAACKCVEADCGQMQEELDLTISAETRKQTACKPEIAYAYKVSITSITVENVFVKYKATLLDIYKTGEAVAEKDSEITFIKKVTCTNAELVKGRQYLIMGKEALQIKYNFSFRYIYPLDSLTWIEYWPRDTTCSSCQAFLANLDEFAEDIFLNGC
From the text: Compound CU0136 is a racemic mixture of Compound CU0186 and CU0187. Numbers in parenthesis following compound numbers indicate alternate enantiomers (as distinguished by retention time during chromatographical separation).

## CCCCCOc1cc(N2CCCN(Cc3ccc(CNC(=O)c4cocn4)cc3OC)C2=O)ccc1OC [CU0161]
[1]
  solubility kinetic: 77 µM (≈ 41.3 µg/mL)
Human C5
  IC50: 22.9 nM

## COc1cc(CC(=O)N2CCOC(CN(C)C)C2)ccc1CN1CCCN(c2ccc(OC)c(OCCCC(C)(F)F)c2)C1=O (stereo not shown) [CU0170]
[1]
  solubility kinetic: 435 µM (≈ 275 µg/mL)
Human C5
  IC50: 20.1 nM

## CCCCCOc1cc(N2CCCN(Cc3ccc(CC(=O)N4CCN=C(N(C)C)C4)cc3OC)C2=O)ccc1OC [CU0173]
[1]
  solubility kinetic: 368 µM (≈ 213 µg/mL)
Human C5
  IC50: 11.4 nM

## CCC(F)(F)CCOc1cc(N2CCCN(Cc3ccc(CC(=O)N4CCOC(CN(C)C)C4)cc3OC)C2=O)ccc1OC (stereo not shown) [CU0175]
[1]
  solubility kinetic: 486 µM (≈ 308 µg/mL)
Human C5
  IC50: 28.1 nM

## CCCCCOc1cc(N2CCCN(Cc3ccc(CC(=O)N(C)C4CCN(CC)C4)cc3OC)C2=O)ccc1OC (stereo not shown) [CU0177]
[1]
  solubility kinetic: 351 µM (≈ 204 µg/mL)
Human C5
  IC50: 21.1 nM

## CCCCCOc1cc(N2CCCN(Cc3ccc(CCN4CCN(C)CC4)cc3OC)C2=O)ccc1OC [CU0178]
[1]
  solubility kinetic: 423 µM (≈ 228 µg/mL)
Human C5
  IC50: 26.7 nM

## CCCCCOc1cc(N2CCCN(Cc3ccc(CC(N)=O)cc3OC)C2=O)ccc1OC [CU0188]
[1]
  solubility kinetic: 73 µM (≈ 34.3 µg/mL)
Human C5
  IC50: 19.9 nM

## CCCCCOc1cc(N2CCCN(Cc3ccc(CCN4CCCCC4=O)cc3OC)C2=O)ccc1OC [CU0190]
[1]
  solubility kinetic: 139 µM (≈ 74.7 µg/mL)
Human C5
  IC50: 41.4 nM

## CCCCCOc1cc(N2CCCN(Cc3ccc(CC(=O)N4CCO[C@H](COC)C4)cc3OC)C2=O)ccc1OC [CU0196]
[1]
  solubility kinetic: > 500 µM
Human C5
  IC50: 21.1 nM

## CCCCCOc1cc(N2CCCN(Cc3ccc(CN)cc3OC)C2=O)ccc1OC [CU0201]
[1]
  solubility kinetic: 389 µM (≈ 172 µg/mL)
Human C5
  IC50: 7.4 nM

## CCC(F)(F)CCOc1cc(N2CCCN(Cc3ccc(CC(=O)NC4CCN(C(C)C)CC4)cc3OC)C2=O)ccc1OC [CU0207]
[1]
  solubility kinetic: 415 µM (≈ 262 µg/mL)
Human C5
  IC50: 13.1 nM

## CCCCCOc1cc(N2CCCN(Cc3ccc(Cc4nnnn4C)cc3OC)C2=O)ccc1OC [CU0211]
[1]
  solubility kinetic: 112 µM (≈ 57 µg/mL)
Human C5
  IC50: 15.6 nM

## CCCCCOc1cc(N2CCCN(Cc3ccc(Cc4nnn(C)n4)cc3OC)C2=O)ccc1OC [CU0212]
[1]
  solubility kinetic: 52 µM (≈ 26.4 µg/mL)
Human C5
  IC50: 23.6 nM

## COc1cc(CC(=O)N(C)C)ccc1CN1CCCN(c2ccc(OC)c(OCC[C@@H]3C[C@@H]4CC[C@H]3C4)c2)C1=O [CU0213]
[1]
  solubility kinetic: 17 µM (≈ 9.35 µg/mL)
Human C5
  IC50: 20.4 nM

## COc1cc(CC(=O)N(C)C)ccc1CN1CCCN(c2ccc(OC)c(OCCCC(F)(F)C(F)(F)F)c2)C1=O [CU0214]
[1]
  solubility kinetic: 209 µM (≈ 123 µg/mL)
Human C5
  IC50: 21.1 nM

## CCCCCOc1cc(N2CCCN(Cc3ccc(CC(=O)N4CCO[C@@H](COC)C4)cc3OC)C2=O)ccc1OC [CU0224]
[1]
  solubility kinetic: 466 µM (≈ 272 µg/mL)
Human C5
  IC50: 15.4 nM

## CCCCCOc1cc(N2CCCN(Cc3cccc4c3ccn4CC(=O)N3CCN=C(N(C)C)C3)C2=O)ccc1OC [CU0239]
[1]
  solubility kinetic: 333 µM (≈ 196 µg/mL)
Human C5
  IC50: 11.2 nM

## CCCCCOc1cc(N2CCCN(Cc3cccc4c3ccn4CC(=O)NC3CNC(=O)C3)C2=O)ccc1OC (stereo not shown) [CU0243]
[1]
  solubility kinetic: < 10 µM
Human C5
  IC50: 5.5 nM

## CCCCCOc1cc(N2CCCN(Cc3cccc4c3ccn4CC(=O)NC3CCNC(=O)C3)C2=O)ccc1OC (stereo not shown) [CU0244]
[1]
  solubility kinetic: 200 µM (≈ 115 µg/mL)
Human C5
  IC50: 6.7 nM

## CCCCCOc1cc(N2CCCN(Cc3cccc4c3ccn4CC(=O)NC3(C)COC3)C2=O)ccc1OC [CU0245]
[1]
  solubility kinetic: 142 µM (≈ 77.9 µg/mL)
Human C5
  IC50: 12.2 nM

## CCCCCOc1cc(N2CCCN(Cc3cccc4c3ccn4CC(=O)N3CCN(C)C(=O)C3)C2=O)ccc1OC [CU0246]
[1]
  solubility kinetic: 287 µM (≈ 165 µg/mL)
Human C5
  IC50: 10.6 nM

## CCCCCOc1cc(N2CCCN(Cc3cccc4c3ccn4CC(=O)N3CCOC(CN(C)C)C3)C2=O)ccc1OC (stereo not shown) [CU0247]
[1]
  solubility kinetic: 376 µM (≈ 228 µg/mL)
Human C5
  IC50: 9.8 nM

## CCCCCOc1cc(N2CCCN(Cc3ccnc4c3ccn4CC(=O)NC3CCN(C(C)C)CC3)C2=O)ccc1OC [CU0255]
[1]
  solubility kinetic: 436 µM (≈ 264 µg/mL)
Human C5
  IC50: 19.4 nM

## COc1ccc(N2CCCN(Cc3ccnc4c3ccn4CC(=O)N(C)C)C2=O)cc1OCCCC(F)(F)C(F)(F)F [CU0256]
[1]
  solubility kinetic: 22 µM (≈ 13.1 µg/mL)
Human C5
  IC50: 62.7 nM

## CCCCCOc1cc(N2CCCN(Cc3ccnc4c3ccn4CC(=O)N(C)C3CCN(CC)C3)C2=O)ccc1OC (stereo not shown) [CU0257]
[1]
  solubility kinetic: > 500 µM
Human C5
  IC50: 16 nM

## CCCCCOc1cc(N2CCCN(Cc3ccnc4c3c(C)cn4CC(=O)N(C)C)C2=O)ccc1OC [CU0258]
[1]
  solubility kinetic: 462 µM (≈ 241 µg/mL)
Human C5
  IC50: 7.5 nM
